Source: patent US8383129B2, “Employment of rotavirus proteins, derived proteins and peptides for the modulation of tissue permeability” (priority 2003, dated 2013)
“Also recorded” adds a separate entry of the source.

Legend:
male Wistar rats = assay: Induction of diabetes: blood glucose after streptozotocin; type: in vivo, rat; conditions: 75 mg/kg intraperitoneal, three days after injection, versus mock injection
Description: (§1) A) Generation of Diabetic Rats. • Male Wistar rats (230-250 gr.) were maintained on PicoLab® Rodent Diet 20, sterilized by irradiation and water ad libitum, in the animal house (temperature 22 to 24° C., 50 to 55% humidity). Care and handling of the animals were in accordance to international recommended procedures. • Diabetes mellitus type I was induced with one intraperitoneal shot of streptozotocin (75 mg/Kg weight; Sigma, Cat. No. S0130), diluted in citrate buffer 0.1 M (Sigma, Cat. No. S4641) pH 4.5. Streptozotocin solution was prepared immediately before use and protected from light exposure.
(§2) B) Determination of Glucose Concentration in Blood. • Using heparinized capillary tubing (Chase Scientific Glass Inc. Cat. No. 2501) a drop of blood was taken from the eye orbital sinus of the rats. Blood glucose concentration was determined using reactive strips (One Touch, LIFESCAN, Johnson & Johnson) and a commercial glucometer (One Touch Basic Plus, LIFESCAN, Johnson & Johnson). Glucose concentration was determined in healthy animals and in those that had received the streptozotocin intraperitoneal shot at least three days before being tested.

[1] = system: pancreatic cancer and gastrointestinal tumors; conditions: cited from earlier work
[2] = system: rats with streptozotocin induced diabetes; assay: Blood glucose after insulin administration to diabetic rats; type: in vivo, rat
Description: as §1, §2
C) Administration of Insulin to Diabetic Rats. • In order to study the changes in glucose concentration generated by the administration of insulin, the first blood sample was taken from diabetic animals that had fasted overnight. Immediately after, the animals received their food (Lab Diet 5053), and 30 minutes later they were treated according to the following protocols: 1) Human insulin of intermediate action (3-6 IU/rat; Humulin® N, HI-310, Lilly) was parenterally administered. 2) Human insulin of intermediate action (15-30 IU/rat; Humulin® N, HI-310, Lilly) was given orally through an esophagic rat cannula (Fine Science Tools; Cat. No. 18061-75), in a solution of 400 μl of NaHCO3 (1.5 g/100 ml, pH 8.3-8.4), to neutralize gastric acidity. 3) Employing an esophagic rat cannula, 100 μg of GST-VP8 and human insulin of intermediate action (15-30 IU/rat; Humulin® N, HI-310, Lilly) were administered orally in a solution of 400 μl NaHCO3 (1.5 g/100 ml, pH 8.3-8.4). 4) 100 μg of GST-VP8 were administered orally through an esophagic rat cannula. The level of blood glucose was determined at different times after the start of each of the above described procedures.

MDCK monolayers [3] = assay: Transepithelial electrical resistance (TER) across confluent MDCK monolayers; conditions: for TER of MDCK monolayers treated with synthetic cyclic peptides: 100 or 500 μg/ml, versus control cultures; for TER of epithelial (MDCK) monolayers: confluent monolayers (FIG. 1: after 30 min. of treatment); for dose dependence of the effect upon TER: 0.4, 4 or 10 μg/ml; for TER after withdrawal of the protein from the culture media: monolayers washed and transferred to media without GST-VP8
Description: MDCK cells were cultured as previously described (Gonzalez-Mariscal et al., 1990) and used for experiments between passages 70-90.
The degree of sealing of tight junctions was evaluated by measuring the transepithelial electrical resistance (TER) across the monolayer. Standard procedures were followed (Gonzalez-Mariscal et al., 1990). Briefly, monolayers grown over Millipore filters were mounted between two Lucite chambers with an exposed area of 0.23 cm2. Current was delivered via Ag—AgCl electrodes placed at 2.0 cm form the monolayer; the voltage deflection elicited was measured with a second set of electrodes placed at 1.0 mm from the membrane. The contribution if the filter and the bathing solution was subtracted, and all values reported correspond exclusively to the monolayer. Each disk was used for a single determination.
The determination of the TER across an epithelial monolayer was done as described in Example 1.

TJ of MDCK monolayers = assay: Freeze-fracture analysis of TJ strands in MDCK monolayers; type: cell-based; conditions: 4 μg/ml, 1 hour
Description: Confluent monolayers of MDCK cells were incubated for 1 hour with 4 μg/ml of GST-VP8 dissolved in DMEM, while control monolayers remained in DMEM. Freeze-fracture replicas were obtained from monolayers fixed with 2.5% glutaraldehyde for 30 minutes, and gradually infiltrated with glycerol up to a 20% concentration, in which they were left for 1 hour. The monolayers were then detached from the substrate and frozen in liquid nitrogen. Freeze fracture was carried out at −120° C., and 2×10^−6 mm Hg using a Balzers apparatus (BAF400T). After evaporation of platinum and carbon, the organic material was digested for 1 hour in chromic mixture. Replicas were extensively washed in distilled water and mounted in Formvar coated grids. The observations were done in an electron microscope JEOL 200EX.
To assess modifications in the pattern of TJ strands, we counted the number of strands intercepting lines drawn perpendicular to the main axis of the junction, every 48 nm, as well as the distance between the upper and lowermost strand. 59 and 54 μm of TJ networks were analysed respectively for control and VP8 treated monolayers.
As has been previously reported (Gonzalez-Mariscal et al., 1985) the amount of junction is defined by the following function:
Where ni is the number of strands in a segment of TJ, and % is the percentage in which that number of strands is present in the sample.
Total junctional width is defined as: […]
Where ni is the distance between the upper and lowermost filament in TJ segment, and %i is the percentage in which that width is present in the sample.

MDCK monolayers [4] = assay: Calcium-switch assay for TJ assembly (development of TER); type: cell-based; conditions: 4 μg/ml
Description: The ability of VP8 to inhibit the development of TJ was assessed utilizing the Ca^2+ switch assay (Gonzalez-Mariscal et al., 1990). Cells were plated at confluency on Millipore filters and incubated for 1 hour in DMEM (normal calcium media, NC; 1.8 mM Ca^2+). Then, the resulting monolayers were washed three times with PBS without Ca^2+ and transferred to minimal essential medium without Ca^2+ (low calcium media, LC; 1-5 μM Ca^2+). Twenty hours later experimental monolayers were transferred to LC media containing 4 μg/ml of GST-VP8 or of GST-VP5 dissolved in LC media, while control monolayers were again incubated in LC media. After 30 minutes, the experimental monolayers were transferred to NC media containing 4 μg/ml of GST-VP8 or of GST-VP5. Control monolayers received instead NC media. The TER was measured at different time points after the monolayers were transferred to NC media.

ZO-1 = assay: Immunolocalization of TJ protein ZO-1 in MDCK monolayers; type: cell-based; conditions: 4 μg/ml, 1 hr
Description: (§3) MDCK cells were cultured in glass coverslips. Confluent cultures were exposed to 4 μg/ml of GST-VP8 for 1 hr. The cells were then fixed for 30 min with 2% p-formaldehyde in PBS, pH 7.4, and permeabilized for 3 min with 0.2% PBS-TX. Cells were washed five times with PBS and then blocked for 30 minutes with 1% BSA Ig free (Research Organics 1331-a). The monolayers were incubated overnight at 4° C. with rabbit polyclonal antibodies against ZO-1 (Zymed 61-7300, dilution 1:100), Claudin 3 (Zymed 34-1700, dilution 3 μgr/ml) or occludin (Zymed 71-1500, dilution 1:100 in 1% Ig-free BSA). After being washed five times with PBS, the coverslips were incubated for one hour at room temperature with a secondary antibody (FITC-conjugated goat anti-rabbit, catalogue no. 65-6111, diluted 1:100, Zymed). The monolayers were washed five times in PBS before being mounted with the antifade reagent Vectashield (Vector Laboratories Inc.). The fluorescence of the monolayers was examined using a confocal microscope (MRC600, Bio-Rad) with a Krypton-argon laser.

claudin-3 = biological target: T1, claudin-3 (Canis lupus familiaris, UniProt Q95KM5); assay: Immunolocalization of TJ protein claudin-3 in MDCK monolayers; type: cell-based; conditions: 4 μg/ml, 1 hr
T1 construct: endogenous in cells; host or cells: MDCK
T1 sequence (Q95KM5 1-218): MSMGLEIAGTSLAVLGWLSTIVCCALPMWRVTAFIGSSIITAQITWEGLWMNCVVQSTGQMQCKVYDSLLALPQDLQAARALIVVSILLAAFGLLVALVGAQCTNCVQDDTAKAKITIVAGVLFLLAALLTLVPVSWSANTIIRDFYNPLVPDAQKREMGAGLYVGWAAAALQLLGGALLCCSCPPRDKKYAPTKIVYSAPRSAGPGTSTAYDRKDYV
Description: as §3

occludin = biological target: T2, occludin (Canis lupus familiaris, UniProt Q28269); assay: Immunolocalization of TJ protein occludin in MDCK monolayers; type: cell-based; conditions: 4 μg/ml, 1 hr
T2 construct: endogenous in cells; host or cells: MDCK
T2 sequence (Q28269 1-521): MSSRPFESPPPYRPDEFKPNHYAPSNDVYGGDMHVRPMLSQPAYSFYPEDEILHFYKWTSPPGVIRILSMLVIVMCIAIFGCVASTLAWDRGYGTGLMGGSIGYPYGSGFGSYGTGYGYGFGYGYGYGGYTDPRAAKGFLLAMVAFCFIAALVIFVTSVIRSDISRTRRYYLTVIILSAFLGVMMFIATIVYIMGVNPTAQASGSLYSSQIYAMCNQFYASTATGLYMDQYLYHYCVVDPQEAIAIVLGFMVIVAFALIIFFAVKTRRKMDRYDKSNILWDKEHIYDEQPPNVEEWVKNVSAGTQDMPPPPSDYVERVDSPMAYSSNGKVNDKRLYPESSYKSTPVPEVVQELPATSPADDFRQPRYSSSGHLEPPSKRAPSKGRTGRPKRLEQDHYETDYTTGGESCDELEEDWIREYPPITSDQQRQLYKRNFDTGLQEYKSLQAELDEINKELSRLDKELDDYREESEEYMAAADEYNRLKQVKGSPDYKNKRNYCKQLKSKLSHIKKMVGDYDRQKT
Description: as §3

Q: Which results are given for `CN(N=O)C(=O)N[C@H]1C(O)O[C@H](CO)[C@@H](O)[C@@H]1O` (mixture of isomers) [streptozotocin]?
A: concentration of blood glucose (male Wistar rats): significantly increased the level of glucose in the blood; concentration of blood glucose (male Wistar rats; listed as Streptozotocin): significantly increases the concentration of blood glucose

Q: Which tumor growth [1] does the source give for TGFβ here?
A: significant reduction of tumor growth

Q: What does the source list for “insulin: Human insulin of intermediate action (Humulin® N, HI-310, Lilly) [reference compound]”?
A: blood glucose concentration, insulin administered orally alone ([2]; 30 IU, oral): the concentration of glucose remains high; also recorded: does not diminish the blood glucose concentration; blood glucose concentration, insulin administered parenterally ([2]; Humulin, intermediate action, 6 IU, parenteral): decreases the blood glucose concentration

Q: Which “TER of MDCK monolayers treated with synthetic cyclic peptides” value (shortened to “TER of MDCK monolayers treated”) (MDCK monolayers [3]) does the source give for “174IYTY177 (Rhesus Monkey Rotavirus) [SEQ. ID. No. 6]” here?
A: no effect; also recorded: TER similar to that of control cultures

Q: With “VP8: polypeptide derived from rotavirus protein VP4; used in the experiments as GST or His fusion protein” as the molecule, how does the “TJ freeze fracture pattern” value (TJ of MDCK monolayers) read?
A: induces the appearance of loose ends oriented perpendicular to the network of TJ fibrils

Q: What about the “distribution of the number of TJ strands” value (TJ of MDCK monolayers; versus control monolayers) of the same molecule?
A: no change

Q: What about the “total amount of junction” value (TJ of MDCK monolayers; versus control monolayers) of the same molecule?
A: no change

Q: And the “Number of loose ends/linear amount of junction in μm” value (TJ of MDCK monolayers; control monolayers 0.17)?
A: 0.32

Q: And the “development of TER / epithelial paracellular barrier after transfer from low to normal calcium media” value (MDCK monolayers [4])?
A: a clear inhibition in the development of TER

Q: And the “blood glucose concentration, insulin administered orally together with VP8” value ([2]; VP8 100 μg and insulin 30 IU, oral)?
A: the blood glucose concentration diminishes; also recorded: diminishes significantly

Q: And the “blood glucose concentration, VP8 administered orally alone” value ([2]; VP8 100 μg, oral, no insulin)?
A: Only with the latter treatment the blood glucose concentration diminished

Q: And the “TER of epithelial (MDCK) monolayers” value (MDCK monolayers [3]; 4 μg/ml)?
A: diminishes the TER

Q: And the “reversibility with time of the effect upon TER” value (MDCK monolayers [3]; 4 μg/ml, protein kept in media)?
A: reversible with time; also recorded: in a reversible manner

Q: What about the “dose dependence of the effect upon TER” value (MDCK monolayers [3]) of the same molecule?
A: dose dependent

Q: Which “TER of MDCK monolayers treated” value (MDCK monolayers [3]) does the source give for “144VVKT147 (Rhesus Monkey Rotavirus) [SEQ. ID. No. 4]” here?
A: no effect; also recorded: TER similar to that of control cultures

Q: Which “distribution of ZO-1 (immunofluorescence)” value (ZO-1) does the source give for “GST-VP8: RRV VP8 fragment (VP4 gene nucleotides 1 to 750) cloned in pGEX-4T-1, fusion protein” here?
A: strong immuno reactivity in the cytoplasm; also recorded: strong immunoreactivity in the cytoplasm

Q: And the “distribution of claudin-3 (immunofluorescence)” value (claudin-3)?
A: large areas almost devoid of lateral staining; also recorded: cell border staining becomes barely detectable in large areas of the monolayer

Q: What about the “distribution of occludin (immunofluorescence)” value (occludin) of the same molecule?
A: broad and diffuse stain at the cell periphery; also recorded: diffuse and wide label at the cellular boundaries

Q: What about the “development of TER / epithelial paracellular barrier after transfer from low to normal calcium media” value (MDCK monolayers [4]) of the same molecule?
A: delays the development of the epithelial paracellular barrier

Q: And the “TER of epithelial (MDCK) monolayers” value (MDCK monolayers [3]; 4 μg/ml)?
A: significant decrease in TER

Q: What about the “TER of epithelial (MDCK) monolayers” value (MDCK monolayers [3]; 4 μg/ml, listed as VP8-GST) of the same molecule?
A: significantly reduces the TER

Q: What about the “TER after withdrawal of the protein from the culture media” value (MDCK monolayers [3]; 4 μg/ml) of the same molecule?
A: recover their TER

Q: What about the “TER after withdrawal of the protein from the culture media” value (MDCK monolayers [3]; 4 μg/ml, listed as GST-VPB) of the same molecule?
A: the TER of the monolayers is restored

Q: And the “dose dependence of the effect upon TER” value (MDCK monolayers [3])?
A: dose-dependent decrease in TER

Q: With “183NVTT186 (Rhesus Monkey Rotavirus) [SEQ. ID. No. 7]” as the molecule, how does the “TER of MDCK monolayers treated” value (MDCK monolayers [3]) read?
A: significantly reduces the TER; also recorded: significantly lower TER
